Test results published in PubChem BioAssay AID1259411 (Chemical Carcinogenesis Research Information System (CCRIS), 2018).
Calls of active or inactive are those of the source. How the calls were made is not given here.

Test system: rodent carcinogenicity bioassays, tumor incidence
Test: CCRIS carcinogenicity studies
Conditions: Dose: 0, Dose: 0
Summary of the method: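 Archive of carcinogenicity, mutagenicity, tumor promotion and tumor inhibition results drawn from journals, NCI reports and other sources, expert-reviewed; covers 1985-2011 and is no longer updated.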

Cc1c2ccccc2c(COS(=O)(=O)O)c2ccc3ccccc3c12
carcinogen call (Species: MOUSE, Strain/Sex: B6C3F1/MALE, Route: INTRAPERITONEAL, 0.001, 0.003, 0.01 UMOL/G IN 5 µL/G DMSO ONCE ON D 12 OF AGE (STUDY DURATION: 10 MO), 0.001, 0.003, 0.01 UMOL/G IN 5 µL/G DMSO ONCE ON D 12 OF AGE (STUDY DURATION: 10 MO), Tumor Site: Type of Lesion: LIVER: HEPATOMA): active; positive
carcinogen call (Species: MOUSE, Strain/Sex: B6C3F1/MALE, Route: INTRAPERITONEAL, 0.0025 UMO1/G IN 10 ML/G TRIOCTANOIN ON 12, 16, 20, AND 24 D OF AGE (STUDY DURATION: 10 MO), Tumor Site: Type of Lesion: LIVER: HEPATOMA): active; positive
carcinogen call (Species: MOUSE, Strain/Sex: B6C3F1/MALE, Route: INTRAPERITONEAL, 0.0025 UMOL/G IN 10 µL/G TRIOCTANOIN ONCE ON D 12 OF AGE (STUDY DURATION: 10 MO), Tumor Site: Type of Lesion: LIVER: HEPATOMA): active; positive
carcinogen call (Species: MOUSE, Strain/Sex: STRAIN-A/FEMALE, Route: INTRAPERITONEAL, 0.1 001;0.003, 0.01 UMOL/G IN 5 µL DMSO/G ONCE AT 4-6 WK OF AGE (STUDY DURATION: 6 MO), 0.1 001;0.003, 0.01 UMOL/G IN 5 µL DMSO/G ONCE AT 4-6 WK OF AGE (STUDY DURATION: 6 MO)): inactive; negative
carcinogen call (Species: RAT, Strain/Sex: SPRAGUE-DAWLEY/FEMALE, Route: SUBCUTANEOUS, 0.2 UMOL 3/WK FOR 20 DOSES (STUDY DURATION: 52 WK), Tumor Site: Type of Lesion: INJECTION SITE: SARCOMA): active; positive
carcinogen call (Species: RAT, Strain/Sex: SPRAGUE-DAWLEY/FEMALE, Route: SUBCUTANEOUS, 2 UMOL IN 0.25 ML TRIOCTANOIN INTO LEFT HIND LEG AT ABOUT 40 D OF AGE FOLLOWED BY A SECOND DOSE 6 D LATER (STUDY DURA): inactive; negative
carcinogen call (Species: RAT, Strain/Sex: SPRAGUE-DAWLEY/FEMALE, Route: SUBCUTANEOUS, 2 UMOL IN 0.25 ML TRIOCTANOIN ONCE INTO LEFT HIND LEG AT ABOUT 40 D OF AGE (STUDY DURATION: 16 MO)): inactive; negative

CCCCCCN(C)N=O
carcinogen call (Species: HAMSTER, Strain/Sex: SYRIAN/FEMALE, Route: GAVAGE, 6.2 MG/KG 1/WK FOR 50 WK (TOTAL DOSE: 0; 2.1 MMOL) (STUDY DURATION: LIFETIME), 6.2 MG/KG 1/WK FOR 50 WK (TOTAL DOSE: 0; 2.1 MMOL) (STUDY DURATION: LIFETIME), Tumor Site: Type of Lesion: LIVER: CHOLANGIOMA, LUNG: ALVEOLAR/BRONCHIAL CARCINOMA, ALVEOLAR/BRONCHIAL ADENOMA, URINARY BLADDER: TRANSITIONAL CELL C, Tumor Site: Type of Lesion: LIVER: CHOLANGIOMA, LUNG: ALVEOLAR/BRONCHIAL CARCINOMA, ALVEOLAR/BRONCHIAL ADENOMA, URINARY BLADDER: TRANSITIONAL CELL C): active; positive
carcinogen call (Species: HAMSTER, Strain/Sex: SYRIAN/MALE, Route: GAVAGE, 6.2 MG/KG 1/WK FOR 50 WK (TOTAL DOSE: 0; 2.1 MMOL) (STUDY DURATION: LIFETIME), 6.2 MG/KG 1/WK FOR 50 WK (TOTAL DOSE: 0; 2.1 MMOL) (STUDY DURATION: LIFETIME), Tumor Site: Type of Lesion: LIVER: HEPATOCELLULAR ADENOMA, CHOLANGIOMA, HEMANGIOSARCOMA, LUNG: ALVEOLAR/ BRONCHIAL ADENOMA, NASAL MUCOSA: CARCINOMA,, Tumor Site: Type of Lesion: LIVER: HEPATOCELLULAR ADENOMA, CHOLANGIOMA, HEMANGIOSARCOMA, LUNG: ALVEOLAR/ BRONCHIAL ADENOMA, NASAL MUCOSA: CARCINOMA): active; positive
carcinogen call (Species: RAT, Strain/Sex: F344/FEMALE, Route: INTRAVESICULAR, 3.75 MG IN 0.4 ML ETHANOL: DEIONIZED WATER (1:3) 2/WK FOR 30 WK (TOTAL DOSE 1.6 MMOL) (STUDY DURATION: LIFESPAN), Tumor Site: Type of Lesion: BLADDER: TUMOR, LUNG: SQUAMOUS CELL CARCINOMA, UTERUS: TUMOR, Tumor Site: Type of Lesion: BLADDER: TUMOR, LUNG: SQUAMOUS CELL CARCINOMA, UTERUS: TUMOR): active; positive

CC/C(C)=N\O
carcinogen call (Species: MOUSE, Strain/Sex: CD-1/FEMALE, Route: INHALATION, 15, 75, 374 PPM 6 HR/D 5 D/WK FOR 26 MO (STUDY DURATION: 26 MO), 15, 75, 374 PPM 6 HR/D 5 D/WK FOR 26 MO (STUDY DURATION: 26 MO)): inactive; negative
carcinogen call (Species: MOUSE, Strain/Sex: CD-1/MALE, Route: INHALATION, 15, 75, 374 PPM 6 HR/D 5 D/WK FOR 26 MO (STUDY DURATION: 26 MO), 15, 75, 374 PPM 6 HR/D 5 D/WK FOR 26 MO (STUDY DURATION: 26 MO), Tumor Site: Type of Lesion: LIVER: CARCINOMA, ADENOMA OR CARCINOMA): active; positive
carcinogen call (Species: RAT, Strain/Sex: F344/FEMALE, Route: INHALATION, 15, 75, 374 PPM 6 HR/D 5 D/WK FOR 26 MO (STUDY DURATION: 26 MO), 15, 75, 374 PPM 6 HR/D 5 D/WK FOR 26 MO (STUDY DURATION: 26 MO)): inactive; negative
carcinogen call (Species: RAT, Strain/Sex: F344/MALE, Route: INHALATION, 15, 75, 374 PPM 6 HR/D 5 D/WK FOR 26 MO (STUDY DURATION: 26 MO), 15, 75, 374 PPM 6 HR/D 5 D/WK FOR 26 MO (STUDY DURATION: 26 MO), Tumor Site: Type of Lesion: LIVER: ADENOMA, CARCINOMA, ADENOMA OR CARCINOMA): active; positive

Nc1c(Br)cc(Br)c2c1C(=O)c1ccccc1C2=O
carcinogen call (Species: MOUSE, Strain/Sex: B6C3F1/FEMALE, Route: ORAL, 10000, 20000 PPM IN DIET FOR 104 WK (STUDY DURATION: 106 WK), 10000, 20000 PPM IN DIET FOR 104 WK (STUDY DURATION: 106 WK), Tumor Site: Type of Lesion: LIVER: HEPATOCELLULAR ADENOMA, HEPATOCELLULAR CARCINOMA, FORESTOMACH: SQUAMOUS CELL ADENOMA, SQUAMOUS CELL CARCINOMA, LU, Tumor Site: Type of Lesion: LIVER: HEPATOCELLULAR ADENOMA, HEPATOCELLULAR CARCINOMA, FORESTOMACH: SQUAMOUS CELL ADENOMA, SQUAMOUS CELL CARCINOMA, LU): active; positive
carcinogen call (Species: MOUSE, Strain/Sex: B6C3F1/MALE, Route: ORAL, 10000, 20000 PPM IN DIET FOR 104 WK (STUDY DURATION: 106 WK), 10000, 20000 PPM IN DIET FOR 104 WK (STUDY DURATION: 106 WK), Tumor Site: Type of Lesion: LIVER: HEPATOCELLULAR ADENOMA, HEPATOCELLULAR CARCINOMA, HEPATOBLASTOMA, FORESTOMACH: SQUAMOUS CELL PAPILLOMA, SQUAMOUS): active; positive
carcinogen call (Species: RAT, Strain/Sex: F344/FEMALE, Route: ORAL, 2000, 5000, 10000 PPM IN DIET FOR UP TO 104 WK (STUDY DURATION: 106 WK), 2000, 5000, 10000 PPM IN DIET FOR UP TO 104 WK (STUDY DURATION: 106 WK), Tumor Site: Type of Lesion: LIVER: HEPATOCELLULAR ADENOMA, HEPATOCELLULAR CARCINOMA, HEPATOCHOLANGIOCARCINOMA, LARGE INTESTINE: ADENOMA, CARCINOMA;, Tumor Site: Type of Lesion: LIVER: HEPATOCELLULAR ADENOMA, HEPATOCELLULAR CARCINOMA, HEPATOCHOLANGIOCARCINOMA, LARGE INTESTINE: ADENOMA, CARCINOMA): active; positive
carcinogen call (Species: RAT, Strain/Sex: F344/MALE, Route: ORAL, 2000, 5000, 10000 PPM IN DIET FOR UP TO 104 WK (STUDY DURATION: 106 WK), 2000, 5000, 10000 PPM IN DIET FOR UP TO 104 WK (STUDY DURATION: 106 WK), Tumor Site: Type of Lesion: LIVER: HEPATOCELLULAR ADENOMA, HEPATOCELLULAR CARCINOMA, HEPATOCHOLANGIOCARCINOMA, LARGE INTESTINE: ADENOMA, CARCINOMA;, Tumor Site: Type of Lesion: LIVER: HEPATOCELLULAR ADENOMA, HEPATOCELLULAR CARCINOMA, HEPATOCHOLANGIOCARCINOMA, LARGE INTESTINE: ADENOMA, CARCINOMA): active; positive

CCN(CC)CCCC(C)Nc1c2ccc(Cl)cc2nc2ccc(OC)cc12 (stereo not given)
carcinogen call (Species: Mouse, Strain/Sex: CD-1/Female (23/24)/(24/24)(23/24)(22/23), Route: Intraperitoneal, 10, 50, 150 mg/kg on days 8 and 15 after birth (Study duration: 52 weeks) (Test material solvent: 1% w/v carboxymethy, 10, 50, 150 mg/kg on days 8 and 15 after birth (Study duration: 52 weeks) (Test material solvent: 1% w/v carboxymethy): inactive; negative
carcinogen call (Species: Mouse, Strain/Sex: CD-1/Male (32/32)/(23/24)(23/24)(25/25), Route: Intraperitoneal, 10, 50, 150 mg/kg on days 8 and 15 after birth (Study duration: 52 weeks) (Test material solvent: 1% w/v carboxymethy, 10, 50, 150 mg/kg on days 8 and 15 after birth (Study duration: 52 weeks) (Test material solvent: 1% w/v carboxymethy): inactive; negative
